Numbers after ± are expanded uncertainties.
Experiment: wn = mass fraction of the nth substance listed
Conditions: 293.15 K; 101.3 kPa; Liquid; w1 = 0.3

mass density | viscosity | Compound
1042.7 ± 1.1 kg/m3 | 4.22 ± 0.37 mPa·s | OCCNCCO [diethanolamine] + O
999.85 ± 1.1 kg/m3 | 4.89 ± 0.43 mPa·s | CC(C)(N)CO [2-amino-2-methylpropan-1-ol] + O
1015.3 ± 1.1 kg/m3 | 2.63 ± 0.24 mPa·s | NCCO [2-aminoethan-1-ol] + O

Compound | mass density | viscosity
CN(CCO)CCO [N-methyldiethanolamine] + O | 1032.2 ± 1.1 kg/m3 | 3.46 ± 0.31 mPa·s

Same assay, conditions: 298.15 K; 101.3 kPa; Liquid; w1 = 0.3

mass density | viscosity | Compound
1037.4 ± 1.1 kg/m3 | 3.26 ± 0.3 mPa·s | OCCNCCO [diethanolamine] + O
997.41 ± 1.1 kg/m3 | 3.79 ± 0.34 mPa·s | CC(C)(N)CO [2-amino-2-methylpropan-1-ol] + O
1012.1 ± 1.1 kg/m3 | 2.2 ± 0.2 mPa·s | NCCO [2-aminoethan-1-ol] + O

Compound | mass density | viscosity
CN(CCO)CCO [N-methyldiethanolamine] + O | 1027.5 ± 1.1 kg/m3 | 3.02 ± 0.27 mPa·s

Same assay, conditions: 303.15 K; 101.3 kPa; Liquid; w1 = 0.3

mass density | viscosity | Compound
1033.2 ± 1.1 kg/m3 | 2.57 ± 0.23 mPa·s | OCCNCCO [diethanolamine] + O
994.62 ± 1.1 kg/m3 | 3.21 ± 0.29 mPa·s | CC(C)(N)CO [2-amino-2-methylpropan-1-ol] + O
1009.2 ± 1.1 kg/m3 | 2.1 ± 0.19 mPa·s | NCCO [2-aminoethan-1-ol] + O

Compound | mass density | viscosity
CN(CCO)CCO [N-methyldiethanolamine] + O | 1023.1 ± 1.1 kg/m3 | 2.68 ± 0.24 mPa·s

Same assay, conditions: 308.15 K; 101.3 kPa; Liquid; w1 = 0.3

mass density | viscosity | Compound
1029.1 ± 1.2 kg/m3 | 2.51 ± 0.23 mPa·s | OCCNCCO [diethanolamine] + O
991.22 ± 1.1 kg/m3 | 2.8 ± 0.25 mPa·s | CC(C)(N)CO [2-amino-2-methylpropan-1-ol] + O
1004.9 ± 1.1 kg/m3 | 1.85 ± 0.17 mPa·s | NCCO [2-aminoethan-1-ol] + O

Compound | mass density | viscosity
CN(CCO)CCO [N-methyldiethanolamine] + O | 1019.9 ± 1.2 kg/m3 | 2.27 ± 0.21 mPa·s

Same assay, conditions: 313.15 K; 101.3 kPa; Liquid; w1 = 0.3

mass density | viscosity | Compound
1026.4 ± 1.2 kg/m3 | 1.97 ± 0.18 mPa·s | OCCNCCO [diethanolamine] + O
988.72 ± 1.2 kg/m3 | 2.24 ± 0.21 mPa·s | CC(C)(N)CO [2-amino-2-methylpropan-1-ol] + O
1003.2 ± 1.2 kg/m3 | 1.6 ± 0.15 mPa·s | NCCO [2-aminoethan-1-ol] + O

Compound | mass density | viscosity
CN(CCO)CCO [N-methyldiethanolamine] + O | 1018.2 ± 1.2 kg/m3 | 1.92 ± 0.18 mPa·s

Same assay, conditions: 318.15 K; 101.3 kPa; Liquid; w1 = 0.3

mass density | viscosity | Compound
1022.7 ± 1.3 kg/m3 | 1.72 ± 0.16 mPa·s | OCCNCCO [diethanolamine] + O
986.24 ± 1.2 kg/m3 | 1.92 ± 0.18 mPa·s | CC(C)(N)CO [2-amino-2-methylpropan-1-ol] + O
1001 ± 1.2 kg/m3 | 1.5 ± 0.14 mPa·s | NCCO [2-aminoethan-1-ol] + O

Compound | mass density | viscosity
CN(CCO)CCO [N-methyldiethanolamine] + O | 1014.2 ± 1.3 kg/m3 | 1.72 ± 0.16 mPa·s

Same assay, conditions: 323.15 K; 101.3 kPa; Liquid; w1 = 0.3

mass density | viscosity | Compound
1019.3 ± 1.3 kg/m3 | 1.41 ± 0.13 mPa·s | OCCNCCO [diethanolamine] + O
983.13 ± 1.3 kg/m3 | 1.58 ± 0.15 mPa·s | CC(C)(N)CO [2-amino-2-methylpropan-1-ol] + O
997.76 ± 1.3 kg/m3 | 1.29 ± 0.12 mPa·s | NCCO [2-aminoethan-1-ol] + O

Compound | mass density | viscosity
CN(CCO)CCO [N-methyldiethanolamine] + O | 1011.2 ± 1.3 kg/m3 | 1.49 ± 0.14 mPa·s

— the NIST ThermoML archive (doi:10.1021/je020206a)
